Data taken from ChEMBL document CHEMBL3880421, “Indazole compounds and pharmaceutical compositions for inhibiting protein kinases, and methods for their use” (2003).

Assays:
[1] = (§1) Cmax in B6 mouse at 25 mg/kg, po by UV-HPLC analysis; format: ADME, organism-based; parameters: dose 25 mg/kg, route oral; conditions: B6, mouse, in vivo
[2] = Cmin in B6 mouse at 40 mg/kg, po measured after 7 hrs by UV-HPLC analysis; format: ADME, organism-based; conditions: in vivo, read-out: Cmin
[3] = AUClast in B6 mouse at 25 mg/kg, po by UV-HPLC analysis; format: ADME, organism-based; parameters: dose 25 mg/kg, time 0 - last, route oral; conditions: in vivo
[4] = Cmin in B6 mouse at 200 mg/kg, po measured after 7 hrs by UV-HPLC analysis; format: ADME, organism-based; conditions: in vivo, read-out: Cmin
[5] = Cmin in B6 mouse at 8 mg/kg, po measured after 7 hrs by UV-HPLC analysis; format: ADME, organism-based; conditions: in vivo, read-out: Cmin
[6] = Terminal half life in B6 mouse at 25 mg/kg, ip by UV-HPLC analysis; format: ADME, organism-based; conditions: in vivo, read-out: beta t1/2 (converted)
[7] = Terminal half life in B6 mouse at 50 mg/kg, po by UV-HPLC analysis; format: ADME, organism-based; conditions: B6, mouse, in vivo, read-out: beta t1/2 (converted)
Rattus norvegicus [8] = assay: Antivascular activity in rat model of retinopathy assessed as vessel regression in retina at 5 mg/ml, administered intravitreally on postnatal day 8 measured after 6 days by ADPase-staining based histochemical analysis; format: functional
[9] = Terminal half life in B6 mouse at 40 mg/kg, po by UV-HPLC analysis; format: ADME, organism-based; conditions: in vivo, read-out: beta t1/2 (converted)
[10] = Terminal half life in B6 mouse at 8 mg/kg, po by UV-HPLC analysis; format: ADME, organism-based; conditions: in vivo, read-out: beta t1/2 (converted)
[11] = AUClast in B6 mouse at 10 mg/kg, po by UV-HPLC analysis; format: ADME, organism-based; parameters: dose 10 mg/kg, route oral, time 0 - last; conditions: in vivo
[12] = Terminal half life in B6 mouse at 25 mg/kg, po by UV-HPLC analysis; format: ADME, organism-based; conditions: in vivo; for half-life: B6, mouse, read-out: beta t1/2 (converted)
[13] = Terminal half life in B6 mouse at 10 mg/kg, po by UV-HPLC analysis; format: ADME, organism-based; conditions: in vivo, read-out: beta t1/2 (converted)
[14] = Cmax in B6 mouse at 10 mg/kg, po by UV-HPLC analysis; format: ADME, organism-based; parameters: dose 10 mg/kg, route oral; conditions: in vivo
[15] = test system: Vascular endothelial growth factor receptor 2 (Homo sapiens), P35968 [E990V]; conditions: at 50 nM
Vascular endothelial growth factor receptor 2 (Homo sapiens), P35968 [E990V], sequence (P35968 whole entry E990V): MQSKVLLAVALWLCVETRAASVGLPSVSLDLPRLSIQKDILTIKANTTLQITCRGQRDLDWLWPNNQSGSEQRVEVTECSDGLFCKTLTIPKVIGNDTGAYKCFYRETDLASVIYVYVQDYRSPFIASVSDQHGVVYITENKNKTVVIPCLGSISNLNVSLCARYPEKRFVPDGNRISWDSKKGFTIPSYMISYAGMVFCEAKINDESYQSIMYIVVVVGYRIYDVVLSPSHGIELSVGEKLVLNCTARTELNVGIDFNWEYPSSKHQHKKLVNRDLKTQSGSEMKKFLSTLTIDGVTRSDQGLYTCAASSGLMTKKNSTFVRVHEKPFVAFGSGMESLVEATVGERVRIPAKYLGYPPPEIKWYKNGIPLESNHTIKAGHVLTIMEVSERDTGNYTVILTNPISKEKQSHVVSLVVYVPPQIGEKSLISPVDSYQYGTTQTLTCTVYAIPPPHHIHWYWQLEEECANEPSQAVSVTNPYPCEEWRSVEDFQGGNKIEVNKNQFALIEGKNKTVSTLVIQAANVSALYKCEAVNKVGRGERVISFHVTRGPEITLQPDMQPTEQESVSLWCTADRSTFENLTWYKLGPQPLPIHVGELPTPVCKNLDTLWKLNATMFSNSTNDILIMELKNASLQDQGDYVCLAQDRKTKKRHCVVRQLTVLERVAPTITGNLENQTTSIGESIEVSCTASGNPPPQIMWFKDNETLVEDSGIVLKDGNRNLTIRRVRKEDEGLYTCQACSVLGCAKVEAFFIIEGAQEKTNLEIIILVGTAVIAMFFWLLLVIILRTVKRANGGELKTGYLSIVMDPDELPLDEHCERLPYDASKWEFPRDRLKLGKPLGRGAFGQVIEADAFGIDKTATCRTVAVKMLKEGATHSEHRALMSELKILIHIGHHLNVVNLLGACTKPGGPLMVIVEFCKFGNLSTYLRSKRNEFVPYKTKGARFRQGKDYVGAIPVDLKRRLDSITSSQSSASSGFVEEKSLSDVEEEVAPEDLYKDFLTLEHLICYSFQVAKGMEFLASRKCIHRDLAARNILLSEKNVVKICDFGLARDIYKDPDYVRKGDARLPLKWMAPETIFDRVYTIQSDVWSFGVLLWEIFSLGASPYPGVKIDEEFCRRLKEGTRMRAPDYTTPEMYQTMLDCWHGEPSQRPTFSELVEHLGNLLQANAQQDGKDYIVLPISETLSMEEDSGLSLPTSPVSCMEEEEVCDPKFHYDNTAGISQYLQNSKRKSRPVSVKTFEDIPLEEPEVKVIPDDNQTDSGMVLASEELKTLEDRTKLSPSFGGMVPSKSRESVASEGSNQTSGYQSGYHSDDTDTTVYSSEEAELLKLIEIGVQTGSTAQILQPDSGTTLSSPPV

[16] = Metabolic stability in human liver microsomes assessed as compound remaining at 5 uM measured after 2 hrs in presence of NADPH-regenerating system by LC-UV/MS analysis; format: ADME; conditions: read-out: Stability
Mus musculus = assay: as §1; format: ADME, organism-based; parameters: dose 25 mg/kg, route oral; conditions: mouse, in vivo, BLD = below limit of detection
[17] = biological target: T1, Serine/threonine-protein kinase Chk1 (Homo sapiens) (UniProt O14757); assay: Inhibition of full length human C-terminal 6His-tagged CHK1 expressed in baculovirus/insect expression system assessed as reduction in NADH oxidation at 20 uM using Syntide2 as substrate by pyruvate kinase/lactate dehydrogenase coupled assay
T1 sequence (whole entry): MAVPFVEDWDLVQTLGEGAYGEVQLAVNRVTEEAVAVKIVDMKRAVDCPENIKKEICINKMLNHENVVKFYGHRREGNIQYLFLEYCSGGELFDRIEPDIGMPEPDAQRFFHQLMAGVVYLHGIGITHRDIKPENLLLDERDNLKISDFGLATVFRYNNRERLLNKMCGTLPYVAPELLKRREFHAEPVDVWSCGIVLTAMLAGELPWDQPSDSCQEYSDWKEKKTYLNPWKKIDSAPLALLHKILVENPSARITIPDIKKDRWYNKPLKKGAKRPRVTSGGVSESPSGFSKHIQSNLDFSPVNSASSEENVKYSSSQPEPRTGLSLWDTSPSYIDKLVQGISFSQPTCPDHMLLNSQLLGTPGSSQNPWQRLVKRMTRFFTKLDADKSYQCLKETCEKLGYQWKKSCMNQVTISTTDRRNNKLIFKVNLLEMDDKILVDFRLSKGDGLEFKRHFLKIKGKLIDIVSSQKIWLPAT

[18] = biological target: T1, Serine/threonine-protein kinase Chk1 (Homo sapiens); assay: Inhibition of full length human C-terminal 6His-tagged CHK1 expressed in baculovirus/insect expression system assessed as reduction in NADH oxidation at 50 uM using Syntide2 as substrate by pyruvate kinase/lactate dehydrogenase coupled assay
[19] = AUClast in B6 mouse at 50 mg/kg, po by UV-HPLC analysis; format: ADME, organism-based; parameters: dose 50 mg/kg, route oral, time 0 - last; conditions: in vivo
Rattus norvegicus [20] = assay: Antivascular activity in rat model of retinopathy assessed as vessel regression in retina at 5 mg/ml, administered intravitreally measured after 6 days by ADPase-staining based histochemical analysis; format: functional
[21] = biological target: Cyclin-dependent kinase 1 (Homo sapiens) (UniProt P06493); assay: Inhibition of CDK1 (unknown origin) at 1 uM
Cyclin-dependent kinase 1 (Homo sapiens), sequence (P06493 whole entry, looked up): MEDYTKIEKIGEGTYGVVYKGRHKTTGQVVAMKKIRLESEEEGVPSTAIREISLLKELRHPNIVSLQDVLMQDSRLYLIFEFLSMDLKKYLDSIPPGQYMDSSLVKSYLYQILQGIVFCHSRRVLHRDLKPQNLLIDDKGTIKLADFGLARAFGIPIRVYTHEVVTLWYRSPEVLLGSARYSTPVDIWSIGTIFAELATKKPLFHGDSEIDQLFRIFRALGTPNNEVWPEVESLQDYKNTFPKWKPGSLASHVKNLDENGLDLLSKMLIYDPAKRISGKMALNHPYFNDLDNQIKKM

[22] = Cmax in B6 mouse at 50 mg/kg, po by UV-HPLC analysis; format: ADME, organism-based; parameters: dose 50 mg/kg, route oral; conditions: in vivo
[23] = test system: Focal adhesion kinase 1 (Homo sapiens), Q05397 [P410T]; assay: Inhibition of human FAK P410T mutant expressed in baculovirus expression system at 10 uM using poly Glu-Tyr (4:1) as substrate by fluorescence polarization method
Focal adhesion kinase 1 (Homo sapiens), Q05397 [P410T], sequence (Q05397 whole entry P410T): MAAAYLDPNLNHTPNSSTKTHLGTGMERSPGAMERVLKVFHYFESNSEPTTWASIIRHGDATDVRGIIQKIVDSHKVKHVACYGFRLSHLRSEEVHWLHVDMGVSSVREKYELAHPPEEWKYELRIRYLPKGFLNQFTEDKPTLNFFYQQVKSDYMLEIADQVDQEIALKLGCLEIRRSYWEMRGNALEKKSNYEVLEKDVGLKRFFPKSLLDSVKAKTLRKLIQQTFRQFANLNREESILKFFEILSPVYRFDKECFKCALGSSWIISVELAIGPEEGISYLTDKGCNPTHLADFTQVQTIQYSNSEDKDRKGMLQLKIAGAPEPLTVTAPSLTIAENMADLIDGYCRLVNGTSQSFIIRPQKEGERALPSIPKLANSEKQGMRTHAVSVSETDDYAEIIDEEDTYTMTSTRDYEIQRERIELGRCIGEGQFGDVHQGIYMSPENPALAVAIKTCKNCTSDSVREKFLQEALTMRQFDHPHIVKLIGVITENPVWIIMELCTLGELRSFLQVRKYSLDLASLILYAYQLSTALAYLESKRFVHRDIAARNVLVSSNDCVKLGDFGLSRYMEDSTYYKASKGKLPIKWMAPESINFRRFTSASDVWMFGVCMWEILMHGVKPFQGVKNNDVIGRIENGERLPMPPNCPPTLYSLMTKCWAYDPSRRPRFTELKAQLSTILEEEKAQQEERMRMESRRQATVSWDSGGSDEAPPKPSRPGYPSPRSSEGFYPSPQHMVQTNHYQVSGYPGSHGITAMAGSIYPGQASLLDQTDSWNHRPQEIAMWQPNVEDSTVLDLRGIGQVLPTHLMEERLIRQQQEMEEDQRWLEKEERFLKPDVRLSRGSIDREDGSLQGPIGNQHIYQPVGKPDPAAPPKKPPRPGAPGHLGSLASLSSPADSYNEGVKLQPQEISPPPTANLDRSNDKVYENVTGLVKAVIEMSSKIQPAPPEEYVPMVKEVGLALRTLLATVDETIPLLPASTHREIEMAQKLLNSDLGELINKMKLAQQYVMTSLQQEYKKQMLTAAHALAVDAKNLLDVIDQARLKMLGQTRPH

Structure (SMILES)	half-life [6] [h]	half-life [7] [h]	further results
Cc1cc(C(=O)Nc2cc(Nc3ccc4c(/C=C/c5ccccn5)n[nH]c4c3)ccc2F)n(C)n1.Cl			Cmax [1]: 50000 ng/mL; concentration at 7 h [2]: 4140 ng/mL; AUC(0-t) [3]: 327 µg·h/mL; concentration at 7 h [4]: 12700 ng/mL; concentration at 7 h [5]: 1900 ng/mL
Cn1nc(C(C)(C)C)cc1C(=O)Nc1cccc(C(=O)c2ccc3c(/C=C/c4ccccn4)n[nH]c3c2)c1	3.2	1.9	
C/C=C/C(=O)Nc1cccc(C(=O)c2ccc3c(/C=C/c4ccccn4)n[nH]c3c2)c1	1.7	2.6	Activity (Rattus norvegicus [8]): 25 - 75%
CCn1nc(C)cc1C(=O)Nc1cccc(C(=O)c2ccc3c(/C=C/c4ccccn4)n[nH]c3c2)c1	2.9	3.4	Activity (Rattus norvegicus [8]): >=25 - 75%
CC(C)NC(=O)c1ccccc1Sc1ccc2c(/C=C/c3ccccn3)n[nH]c2c1	0.8	0.8	
CCn1nc(C)cc1C(=O)Nc1cccc(C(=O)c2ccc3c(/C=C/c4ccccn4)n[nH]c3c2)c1.Cl			half-life [9]: 2.4 h; half-life [10]: 1.5 h; AUC(0-t) [11]: 0.061 µg·h/mL; half-life [12]: 1.6 h; concentration at 7 h [2]: 1880 ng/mL; half-life [13]: 3.1 h; Cmax [14]: 12 ng/mL; concentration at 7 h [5]: 122 ng/mL
O=C(c1cccc(NC(=O)c2ccccn2)c1)c1ccc2c(/C=C/c3ccccc3)n[nH]c2c1	2.2	2.2	
Cc1cc(C(=O)Nc2cc(C(=O)c3ccc4c(/C=C/c5ccccn5)n[nH]c4c3)c(C)cc2C)n(C)n1			Activity (Rattus norvegicus [8]): <=25%
C#CCNC(=O)c1cccc(C(=O)c2ccc3c(/C=C/c4ccccn4)n[nH]c3c2)c1			inhibition [15]: 5%
O=C(Nc1cccc(C(=O)c2ccc3c(/C=C/c4ccccn4)n[nH]c3c2)c1)c1ccncc1	4.7	1.1	remaining at 2 h, 5 µM [16]: 50%
O=C(Nc1nccs1)c1ccccc1Sc1ccc2c(/C=C/c3ccccn3)n[nH]c2c1	1.2	1.2	
O=C(NCc1cccc(F)c1)c1ccccc1Sc1ccc2c(/C=C/c3ccccn3)n[nH]c2c1			beta t1/2 ([12]; mouse, BLD = below limit of detection): Bld; Cmax (Mus musculus): Bld
CCNC(=O)c1ccccc1Sc1ccc2c(/C=C/c3ccccn3)n[nH]c2c1	3.2	0.9	
C=C(C)CNC(=O)c1ccccc1Sc1ccc2c(/C=C/c3ccccn3)n[nH]c2c1	1.5		half-life [12]: 14.6 h
O=C(Nc1cccc(O)c1)c1ccc2c(-c3nc4ccccc4[nH]3)n[nH]c2c1			inhibition [17]: 57.7%
Cc1cc(C(=O)Nc2cccc(Oc3ccc4c(/C=C/c5ccccn5)n[nH]c4c3)c2)nn1C	1.7	1	
O=C(NC1CC1)c1ccccc1Sc1ccc2c(/C=C/c3ccccn3)n[nH]c2c1	1	0.7	
O=C(c1cccc(NC(=O)C2C[C@H]2c2ccccc2)c1)c1ccc2c(/C=C/c3ccccn3)n[nH]c2c1 (mixture of isomers)	3.1	0.5	inhibition [18]: 48%
O=C(Nc1cccc(C(=O)c2ccc3c(/C=C/c4ccccc4)n[nH]c3c2)c1)c1ccncc1	1.6	1.2	
CCn1nc(C)cc1C(=O)Nc1cccc(Oc2ccc3c(/C=C/c4ccccn4)n[nH]c3c2)c1.Cl			half-life [12]: 21 h
CCn1nc(C)cc1C(=O)Nc1cc(Nc2ccc3c(/C=C/c4ccccn4)n[nH]c3c2)c(F)cc1C.Cl			AUC(0-t) [19]: 276 µg·h/mL
C=CCONC(=O)c1ccccc1Sc1ccc2c(/C=C/c3ccccn3)n[nH]c2c1	1.3	4.5	
O=C(NC1CCC1)c1ccccc1Sc1ccc2c(/C=C/c3ccccn3)n[nH]c2c1	3.2	4.9	
O=C(Nc1cccc(Oc2ccc3c(/C=C/c4ccc(Cl)cc4)n[nH]c3c2)c1)c1ccccc1			Activity (Rattus norvegicus [20]): 25 - 75%
O=C(Nc1cccc(C(=O)c2ccc3c(/C=C/c4ccccn4)n[nH]c3c2)c1)c1ccccc1	5	2	
O=C(NCc1ccccc1F)c1ccccc1Sc1ccc2c(/C=C/c3ccccn3)n[nH]c2c1	3.8	3.6	

Structure (SMILES)	half-life [6] [h]	half-life [7] [h]	further results
O=C(Nc1cccc(C(=O)c2ccc3c(/C=N/n4cccc4)n[nH]c3c2)c1)c1ccccc1	2	3	
CCn1nc(C)cc1C(=O)Nc1cccc(Oc2ccc3c(/C=C/c4ccccn4)n[nH]c3c2)c1	5.3	39.3	half-life [12]: 1.9 h; half-life [13]: 3.1 h
Cc1ccc2cc(NC(=O)c3ccccc3Sc3ccc4c(/C=C/c5ccccn5)n[nH]c4c3)ccc2n1	3	3	
O=C(c1cccc(NC(=O)c2cccc3[nH]ccc23)c1)c1ccc2c(/C=C/c3ccccn3)n[nH]c2c1	2.8	1.5	
Cc1cc(NC(=O)c2ccc3c(-c4nc5ccccc5[nH]4)n[nH]c3c2)n[nH]1			inhibition [17]: 38.6%
O=C(Nc1cccc(C(=O)c2ccc3c(-c4nc5ccccc5[nH]4)n[nH]c3c2)c1)c1ccccc1	3	3	
C#CCNC(=O)c1ccccc1Sc1ccc2c(/C=C/c3ccccn3)n[nH]c2c1	1.4	0.9	
O=C(NCCN1CCOCC1)c1ccc2c(-c3nc4ccccc4[nH]3)n[nH]c2c1			inhibition [17]: 21.7%
CCn1nc(C)cc1C(=O)Nc1cc(C(=O)c2ccc3c(/C=C/c4ccccn4)n[nH]c3c2)ccc1C	4	3.4	
O=C(NCC(F)(F)F)c1ccccc1Sc1ccc2c(/C=C/c3ccccn3)n[nH]c2c1	2.4	0.7	
O=C(c1cccc(NC(=O)c2ccccn2)c1)c1ccc2c(/C=C/c3ccccn3)n[nH]c2c1	2.1	0.9	
C[C@@H]1C[C@H]1C(=O)Nc1cccc(C(=O)c2ccc3c(/C=C/c4ccccn4)n[nH]c3c2)c1 (racemic)	1.2	0.7	
CC(=O)c1cccc(C(=O)Nc2cccc(N(C)c3ccc4c(/C=C/c5ccc6c(c5)OCO6)n[nH]c4c3)c2)c1			Activity (Rattus norvegicus [20]): 36 - 37%
O=C(NCC1CC1)c1ccccc1Sc1ccc2c(/C=C/c3ccccn3)n[nH]c2c1	0.9	1	
Cn1cccc1C(=O)NNC(=O)c1ccccc1Sc1ccc2c(/C=C/c3ccccn3)n[nH]c2c1	1.8	0.9	
Fc1cccc(/C=C/c2n[nH]c3cc(-c4ccncc4)ccc23)c1F			inhibition [21]: 7 to 31%
CCCNC(=O)c1ccccc1Sc1ccc2c(/C=C/c3ccccn3)n[nH]c2c1	1.4	0.9	
O=C(Nc1cccc(Oc2ccc3c(/C=C/c4ccccc4)n[nH]c3c2)c1)c1ccccc1			Cmax [22]: 198 ng/mL
O=C(Nc1cc(Nc2ccc3c(/C=C/c4ccccc4)n[nH]c3c2)ccc1F)c1ccccc1	19.9	3.4	
COc1cc(-c2ccc3c(-c4cc5ccccc5[nH]4)n[nH]c3c2)ccc1O			inhibition [23]: 26%
CCn1nc(C)cc1C(=O)Nc1cccc(Oc2ccc3c(/C=C/c4c[nH]cn4)n[nH]c3c2)c1			half-life [12]: 2.1 h; Cmax [1]: 179 ng/mL
O=C(Nc1ccccc1)c1ccccc1Sc1ccc2c(/C=C/c3ccccn3)n[nH]c2c1	1.2	3	
O=C(c1ccc2c(-c3nc4ccccc4[nH]3)n[nH]c2c1)N1CCC(CCO)CC1			inhibition [17]: 33%
Cc1cc(C(=O)Nc2cccc(C(=O)c3ccc4c(/C=C/c5ccccn5)n[nH]c4c3)c2)n[nH]1	0.3	0.7	
O=C(Nc1cccc(Cl)c1)c1ccccc1Sc1ccc2c(/C=C/c3ccccn3)n[nH]c2c1	1.6	0.9	
